Results as given in patent US6770738B1, “Higher order structure and binding of peptide nucleic acids” (ISIS Pharmaceuticals, Inc., priority 1992, dated 2004).

Assays:
[1] = test system: pTlO plasmid (dA10/dT10 insert) and corresponding plasmids linearized with CfrlOI; experiment: Site-specific S1 nuclease digestion of linearized plasmid complexed with PNA; format: biochemical; conditions: 145 units S1 nuclease, room temperature; each PNA with its corresponding plasmid
Method: PNA H-T10-LysNH2 (SEQ ID NO:2) was synthesized as described in Example 1. A pTlO plasmid was prepared from the pUC19 plasmid by inserting the dA10/dT10 (SEQ ID NO:3) sequence into the BamHl site of the polylinker as per the method of Egholm, N et al., J.A.C.S. 1992 114:1895-1897. The pTlO plasmid was linearized with CfrlOI restriction enzyme in the unique site. To form complex with the PNA, about0.1 μg of the linearized plasmid was incubated with 2 o.u./ml of PNA in 3 μl of the TE buffer (10 mM Tris-HCl; 1 mM EDTA, pH 7.4) at 37° C. To perform the S1 nuclease reaction, 10 μl of Na-Acetate buffer (33 mM NaAc; 50 mM NaCl; 10 mM ZnSO4; 0.5% of glycerol, pH 4.6) and 145 units of S1 nuclease (Sigma) were added and incubated for various time periods at room temperature. The reaction was terminated by adding 1 μl of 0.5 M EDTA and cooling to −20° C. Electrophoresis was performed in 1% agarose gel in the TBE buffer with subsequent staining with ethidium bromide. The results of this example are shown in FIG. 1 wherein the size of the markers are shown as are the incubation time periods. In FIG. 8 Lane 1: control—preincubation of DNA with PNA was performed under conditions unfavorable for complex formation (200 mM of NaCl). Lane 2: the reference band obtained by digestion with BamHI restriction enzyme. Lane 3: reference bands obtained by the digestion with Bgll restriction enzyme. […]

[2] = test system: pT9CT9C plasmid linearized by CfrlOI; experiment: Site-specific S1 nuclease digestion of plasmid with two PNA sites complexed with PNA; format: biochemical; conditions: 30 units S1 nuclease; target sites are for T5CT4
Source text: was cloned into the Sal1 site of the pUC19 plasmid. This plasmid, which contained two binding sites for PNA H-T5CT4-LysNH2 (SEQ ID NO:6) separated by six base pairs, was designated pT9CT9C. Strand displacement in the two T5CT4 sites led to opening of the entire region, including the sequence GTCGAC/GACGAC, providing a substrate for the S1 nuclease in both strands. As control, a pT9C-5 plasmid was used, which carried only one T5CT4 (SEQ ID NO:6) insert cloned into the SalI site of the pUC19 plasmid.
cloned in the Sal1 site of the pUC19 polylinker. The pT9C-5 plasmid carried the single insert A5GA4/CT5 (SEQ ID NO:4) cloned in the same site. The PNA-DNA complexes were prepared as described in Example 2 with the only difference being the duration of the incubation was 2 hours. Digestion by 30 units of the S1 nuclease was performed in the same buffer as described in Example 2 with two exceptions, lanes 2 and 4. In lane 2, 15 units of the enzyme were used, whereas in lane 4 200 mM NaCl and 1 mM of ZnSO4 were added to the buffer. Lane 1: the reference band obtained by digestion with the BamHI restriction enzyme of the pUC 19 plasmid linearized by the CfrlOI restriction enzyme. Lanes 2-4 site-specific digestion by the S1 nuclease of the linearized pT9C plasmid complexed with PNA H-T5CT4-LysNH2 (SEQ ID NO:6). Lanes 5-7: various controls. Lane 8: the same experiment as in lane 3, but using PNA T10 (SEQ ID NO:2) instead of T4CT5 (SEQ ID NO:8). Lane 9: the same experiment as in lane 3, but using PNA T2CT2CT4 (SEQ ID NO:1) instead of T4CT5 (SEQ ID NO:8). Lane 10: the same experiment as in lane 3, but using the pT9C-5 plasmid instead of the pT9C. In the header PNA T5CT4 (SEQ ID NO:6) is labelled as 1, T10 (SEQ ID NO:2) as 2 and T2CT2CT4 (SEQ ID NO:1) as 3.
The bands observed by gel electrophoresis have the same position and width as the band created by the BamHI restriction enzyme. […] Moreover, under the much milder S1 nuclease treatment necessary to generate the data for the pT9CT9C, the yield of double-stranded breaks in the pT9C-5 plasmid was extremely low (lane 10).

[3] = test system: A98/T98 insert of pA98 plasmid; experiment: Electron microscopy of PNA-DNA complex; format: binding
Method: A pA98 plasmid containing an A98/T98 (SEQ ID NO:42) insert in the PstI site of the polylinker of a pUC 19 plasmid was used. 0.1 μg of the pA98 plasmid linearized by the Cfr1OI I restriction enzyme was incubated with 0.15 μg of PNA H-T10-LysNH2 (SEQ ID NO:2) at 37 °C. for 3 hours in 10 μL of the TE buffer (10 mM of Tris-HCl, 1 mM of Na3EDTA, pH 8.0). The complex was diluted with buffer containing 10 mM of Tris-HCl, 10 mM of NaCl, pH 7.5 to the final DNA concentration of 0.2-0.5 μg/mL and absorbed to the surface of glow discharged in tripropylamine carbon grid for 2 minutes as described in Duochet, J., Ultrastruct. Res., 1971 35, 147-167. The grid was stained in 0.1-0.5 % water solution of uranyl acetate for 10-15 sec and dried. The sample was shadowed with Pt/C (95/5) and studied in a Philips 400 electron microscope at accelerating voltage of 40 kV. The length of the DNA molecules were measured and a histogram was plotted as described by A. V. Kurakin in Micron Microscopica Acta, 22,213-221 (1991). The length of unwound region was measured by its thicker strand, for which the number of base pairs per unit length was assumed to be the same as for the DNA duplex. For analysis by use of a histogram, the molecules were oriented in such a manner that the left boundary of the loop was closer to the end of the molecule.

H-T10LysNH2 [PNA H-T10-LysNH2]
S1 nuclease cutting of linearized plasmid complexed with PNA [1]: a significant fraction of DNA was cut
S1 nuclease digestion of pT9CT9C plasmid complexed with PNA [2]: very weak digestion
strand displacement loop at full occupancy of the target [3]: 90-100 bases
average size of the loop ([3]; standard error 17 bp): 114 bp
